# Laboratory results: patent US20250090615A1, “MULTIVITAMIN FOR AUXILIARY REGULATION OF BLOOD PRESSURE AND PREPARATION METHOD AND APPLICATION THEREOF” (Changde Jizhi Biological Technology Co., Ltd, priority 2023, published 2025)
# Tested on: spontaneously hypertensive rats
# Experiment: Effects on spontaneously hypertensive rats (noninvasive tail artery systolic blood pressure)
# Format: in vivo, rat
# Conditions: 2-month-old spontaneously hypertensive rats; intragastric once a day for 6 weeks; amlodipine besylate tablets 0.05 mg/kg, multivitamin 600 mg/kg; measured 3 hours after last administration; mean ± spread, n=10
# Text: Experimental animals are 2-month-old spontaneously hypertensive rats.
# Experimental methods are as follows. Spontaneous hypertensive rats are taken and randomly divided into a model group and respective experimental groups. Specifically, in experimental group 1, amlodipine besylate tablets are given by intragastric administration at a dose of 0.05 milligrams per kilogram (mg/kg) once a day for 6 weeks. In experimental groups 2-9, amlodipine besylate tablets are given by intragastric administration at a dose of 0.05 mg/kg, and the products of the embodiments or comparative embodiments are given by intragastric administration at a dose of 600 mg/kg once a day for 6 weeks. The model group is given the same volume of distilled water once a day for 6 weeks. At 3 hours after the last administration, systolic blood pressure data are obtained on the computer through the software of noninvasive tail artery blood pressure measuring instrument. Blood pressure of each rat is measured 6-10 times each time, and the mean value is taken as the measured systolic blood pressure of the rat.
structure (smiles),measurement,value
"CCOC(=O)C1=C(COCCN)NC(C)=C(C(=O)OC)C1c1ccccc1Cl (stereo not shown) [Experimental group 1, amlodipine besylate]",6 weeks 3 h systolic blood pressure,160.29 ± 2.46
